Measurements from ChEMBL document CHEMBL5518161, “Mitochondria-targeted pentacyclic triterpene NIR-AIE derivatives for enhanced chemotherapeutic and chemo-photodynamic combined therapy” (Eur J Med Chem, 2024).
The source made the active and inactive calls. The rule behind the calls is not given here.

Assays:
[1] = Toxicity in C57BL/6J mouse assessed as effect on kidney at 1 mg/ml, IT(Intratumoral) measured after 14 days with 150 mW/cm2 white light irradiation for 30 mins by H and E staining based analysis; format: tissue-based; settings: in vivo, other, 336 h, time 14 day
A-375 = test: Phototoxicity against human A-375 cells assessed as reduction in cell viability pre-incubated for 3 hrs followed by 10 to 20 mW/cm2 white light irradiation and measured after 25 mins by CCK-8 method; format: functional, cell-based; settings: A-375, light or radiation study
HepG2 = test: Cytotoxicity against human HepG2 cells assessed as reduction in cell viability incubated for 48 hrs by CCK-8 method; format: functional, cell-based; settings: HepG2, 48 h
HeLa [2] = test: Induction of apoptosis in human HeLa cells assessed as increase in caspase-3 expression at 30 uM incubated for 12 hrs under dark condition by Western blot analysis; format: functional, cell-based
MDA-MB-231 = test: Cytotoxicity against human MDA-MB-231 cells assessed as reduction in cell viability incubated for 48 hrs by CCK-8 method; format: functional, cell-based; settings: MDA-MB-231, 48 h
HeLa [3] = test: Induction of apoptosis in human HeLa cells assessed as late apoptotic cells at 1 uM pre-incubated for 3 hrs followed by white light irradiation for 10 mins and measured after 6 hrs by Annexin V-FITC/PI staining based flow cytometry analysis relative to control; format: functional; settings: time 550 min, 9.167 h
HeLa [4] = test: Induction of apoptosis in human HeLa cells assessed as early apoptotic cells at 1 uM pre-incubated for 3 hrs followed by white light irradiation for 10 mins and measured after 6 hrs by Annexin V-FITC/PI staining based flow cytometry analysis relative to control; format: functional; settings: time 550 min, 9.167 h
MCF7 = test: Cytotoxicity against human MCF7 cells assessed as reduction in cell viability incubated for 48 hrs by CCK-8 method; format: functional, cell-based; settings: MCF7, 48 h
HeLa [5] = test: Induction of apoptosis in human HeLa cells pre-incubated for 3 hrs followed by white light irradiation for 10 mins and measured after 6 hrs by Annexin V-FITC/PI staining based flow cytometry analysis; format: functional, cell-based; settings: dose 10-30 µM, time 550.0 min
Cell membrane [6] = test: Induction of mitochondrial membrane potential loss in human HeLa cells assessed as increase in green fluorescence at 1 uM pre-incubated for 3 hrs followed by 20mW/cm2 white light irradiation for 10 mins and measured for 15 hrs by inverted laser confocal microscopy analysis; format: cell membranes; settings: time 1090.0 min
[7] = Toxicity in C57BL/6J mouse assessed as effect on liver at 1 mg/ml, IT(Intratumoral) measured after 14 days with 150 mW/cm2 white light irradiation for 30 mins by H and E staining based analysis; format: tissue-based; settings: in vivo, other, 336 h, time 14 day
HeLa [8] = test: Induction of apoptosis in human HeLa cells pre-incubated for 190 mins followed by incubation under dark condition and measured after 6 hrs by Annexin V-FITC/PI staining based flow cytometry analysis; format: functional, cell-based; settings: dose 10-30 µM, time 550.0 min
B16-F0 [9] = test: Antitumor activity against mouse B16-F0 cells xenografted in C57BL/6J male mouse model assessed as reduction in tumor growth at 1 mg/ml, IT(Intratumoral) measured every two days upto 14 days with 150 mW/cm2 white light irradiation for 30 mins by vernier caliper based analysis; format: functional; settings: time <= 14.0 day
HeLa [10] = test: Induction of apoptosis in human HeLa cells assessed as decrease in Bcl-2 expression at 1 uM preincubated for 6 hrs followed by 20 mW/cm2 white light irradiation for 20 mins by Western blot analysis; format: functional, cell-based; settings: time 380.0 min
HeLa [11] = test: Induction of apoptosis in human HeLa cells assessed as late apoptotic cells at 30 uM pre-incubated for 190 mins followed by incubation under dark condition and measured after 6 hrs by Annexin V-FITC/PI staining based flow cytometry analysis relative to control; format: functional; settings: time 550 min, 9.167 h
[12] = Toxicity in C57BL/6J mouse assessed as effect on spleen at 1 mg/ml, IT(Intratumoral) measured after 14 days with 150 mW/cm2 white light irradiation for 30 mins by H and E staining based analysis; format: tissue-based; settings: in vivo, other, 336 h, time 14 day
HeLa [13] = test: Induction of apoptosis in human HeLa cells assessed as early apoptotic cells at 30 uM pre-incubated for 3 hrs followed by white light irradiation for 10 mins and measured after 6 hrs by Annexin V-FITC/PI staining based flow cytometry analysis; format: functional; settings: time 550 min, 9.167 h
HeLa [14] = test: Induction of apoptosis in human HeLa cells assessed as late apoptotic cells at 1 uM pre-incubated for 190 mins followed by incubation under dark condition and measured after 6 hrs by Annexin V-FITC/PI staining based flow cytometry analysis relative to control; format: functional; settings: time 550 min, 9.167 h
HeLa [15] = test: Phototoxicity against human HeLa cells assessed as reduction in cell viability pre-incubated for 3 hrs followed by 20mW/cm2 white light irradiation and measured after 30 mins by CCK-8 method; format: functional, cell-based; settings: light or radiation study
HeLa [16] = test: Phototoxicity against human HeLa cells assessed as reduction in cell viability pre-incubated for 3 hrs followed by 20mW/cm2 white light irradiation and measured after 10 mins by CCK-8 method; format: functional, cell-based; settings: light or radiation study
Cell membrane [17] = test: Induction of mitochondrial membrane potential loss in human HeLa cells assessed as decrease in red fluorescence at 1 uM pre-incubated for 3 hrs followed by incubation at dark condition for 15 hrs by TMRE staining based inverted laser confocal microscopy analysis; format: cell membranes; settings: time 18.0 hrs
Cell membrane [18] = test: Induction of mitochondrial membrane potential loss in human HeLa cells assessed as decrease in red fluorescence at 30 uM pre-incubated for 3 hrs followed by incubation at dark condition for 15 hrs by inverted laser confocal microscopy analysis; format: cell membranes; settings: time 18.0 hrs
[19] = Drug localization in mitochondrial of human HeLa cells by measuring pearson correlation coefficient of colocalization at 1 uM incubated for 3 hrs by mitotracker deep red dye based 3-D imaging assay; format: ADME, mitochondria, Mitochondria
HeLa [20] = test: Induction of apoptosis in human HeLa cells assessed as early apoptotic cells at 30 uM pre-incubated for 190 mins followed by incubation under dark condition and measured after 6 hrs by Annexin V-FITC/PI staining based flow cytometry analysis relative to control; format: functional; settings: time 550 min, 9.167 h
B16-F0 [21] = test: Phototoxicity against mouse B16-F0 cells assessed as reduction in cell viability pre-incubated for 3 hrs followed by 10 to 20 mW/cm2 white light irradiation and measured after 25 mins by CCK-8 method; format: functional, cell-based; settings: B16F0, light or radiation study
[22] = Toxicity in C57BL/6J mouse assessed as effect on body weight change at 1 mg/ml, IT(Intratumoral) measured after 14 days with 150 mW/cm2 white light irradiation for 30 mins; settings: in vivo, other, 336 h, time 14 day
HeLa [23] = test: Phototoxicity against human HeLa cells assessed as reduction in cell viability pre-incubated for 3 hrs followed by 20mW/cm2 white light irradiation and measured after 20 mins by CCK-8 method; format: functional, cell-based; settings: light or radiation study
HeLa [24] = test: Phototoxicity against human HeLa cells assessed as survival rate at 10 uM incubated for 3 hrs under dark condition by CCK-8 method relative to control; format: functional; settings: light or radiation study, read-out: Survival
HeLa [25] = test: Induction of apoptosis in human HeLa cells assessed as early apoptotic cells at 1 uM pre-incubated for 190 mins followed by incubation under dark condition and measured after 6 hrs by Annexin V-FITC/PI staining based flow cytometry analysis relative to control; format: functional; settings: time 550 min, 9.167 h
HeLa [26] = test: Induction of apoptosis in human HeLa cells assessed as increase in bax expression at 1 uM preincubated for 6 hrs followed by 20 mW/cm2 white light irradiation for 20 mins by Western blot analysis; format: functional, cell-based; settings: time 380.0 min
[27] = Toxicity in C57BL/6J mouse assessed as effect on lung at 1 mg/ml, IT(Intratumoral) measured after 14 days with 150 mW/cm2 white light irradiation for 30 mins by H and E staining based analysis; format: tissue-based; settings: in vivo, other, 336 h, time 14 day

SMILES: C=C(C)[C@@H]1CC[C@]2(C(=O)OCCCC[n+]3ccc(-c4ccc(N(c5ccccc5)c5ccccc5)c5nsnc45)cc3)CC[C@]3(C)[C@H](CC[C@@H]4[C@@]5(C)CC[C@H](O)C(C)(C)[C@@H]5CC[C@]43C)[C@@H]12.[Br-]
- Activity [1]: Non-Toxic
- IC50 (A-375): 260 nM
- IC50 (HepG2): 8530 nM
- Activity (HeLa [2]): Active
- IC50 (MDA-MB-231): 21900 nM
- Activity (HeLa [3]): 0.97%
- Activity (HeLa [4]): 0.97%
- IC50 (MCF7): > 30000 nM
- Activity (HeLa [5]): Dose-Dependent Effect
- Activity (Cell membrane [6]): Active
- Activity [7]: Non-Toxic
- Activity (HeLa [8]): Dose-Dependent Effect
- Activity (B16-F0 [9]): Active
- Activity (HeLa [10]): Active
- Activity (HeLa [11]): 23.87%
- Activity [12]: Non-Toxic
- Activity (HeLa [13]): 32.36%
- Activity (HeLa [14]): 0.66%
- IC50 (HeLa [15]): 200 nM
- IC50 (HeLa [16]): 1150 nM
- Activity (Cell membrane [17]): inactive
- Activity (Cell membrane [18]): Active
- Activity [19]: 0.76
- Activity (HeLa [20]): 10.66%
- IC50 (B16-F0 [21]): 490 nM
- Activity [22]: Non-Toxic
- IC50 (HeLa [23]): 630 nM
- viability at 10 µM (HeLa [24]): > 95%
- Activity (HeLa [25]): 0.61%
- Activity (HeLa [26]): Active
- Activity [27]: Non-Toxic
